Results: PubChem BioAssay AID1963838 (Molecular Pharmacology Branch, DTP, NCI, 2024)
pIC50: −log10 of the molar value.

Tested on: 855422-203-R-J1-PDC complex spheroid viability
Assay: Anticancer human tumor 855422-203-R-J1-PDC patient-derived bladder carcinoma cell line growth inhibition [POLQ]
Settings: for pIC50: curve of first compound; for viability, T/C: stronger effect = lower value; active = viability on the fitted dose curve at most 10% of control; inactive = the rest
Method: Multicellular complex tumor spheroid response to Polymerase (POL) inhibitors (novobiocin, ART-558, RP6685) in combination with a variety of drugs and investigational agents in selected tumor cell lines
The POL inhibitors (novobiocin, ART-558, and RP6685) were evaluated both individually and in combination with standard of care and investigational anticancer small molecules within a complex spheroid model of solid tumors. . Complex spheroids include a stromal component modeled by human endothelial cells (HUVEC) and fibroblasts modeled by human mesenchymal stem cells (MSCs). The concentration ranges selected for each drug and investigational agent were based upon clinically achievable concentrations if the clinical Cmax of the agent was known.
Compounds. The drugs and investigational agents: novobiocin (NSC847541), ART-558 (NSC835418), RP-6685 (NSC848927), peposertib (NSC802822), ceralasertib (NSC780249), elimusertib (NSC800525), camonsertib (NSC841442), AZD-1390 (NSC803789), olaparib (NSC753686), talazoparib (NSC767125), rucaparib (NSC756644), sotorasib (NSC818433), MRTX-1133 (NSC836407), SN-38 (NSC673596), topotecan (NSC609699), epotoside (NSC141540), doxorubicin (NSC123127), gemcitabine (NSC613327), 5-fluorouracil (NSC19893), paclitaxel (NSC125973), vemurafenib (NSC761431), MSA-2 (NSC828583), SN-011 (NSC837082), adavosertib (NSC754352), prexasertib (NSC758257), carboplatin (NSC241240) and oxaliplatin (NSC266046), were obtained from the National Cancer Institute (NCI) Developmental Therapeutics Program Chemical Repository (21). The FDA-approved anticancer drug set is available from the Developmental Therapeutics Program at https://dtp.cancer.gov/organization/dscb/obtaining/. […] The stock solutions were prepared in dimethyl sulfoxide (DMSO, Sigma-Aldrich, St. Louis, MO, cat. D2650), except for the platinum compounds which were prepared in saline (Quality Biological, Gaithersburg, MD, cat. 114-055-101), at 800-fold the tested concentration and stored at -70 degrees C prior to their use. All drugs and investigational agents were tested over a range starting from a high concentration at or near the clinical Cmax and decreasing in half-log increments. If the clinical Cmax for an agent had not been determined, the highest concentration tested was 10 microM, except for SN-38, which was tested at a high concentration of 1 microM.
Cell Culture. All cells were maintained in an incubator at 37 degrees C and 5% CO2 with 95% humidity. The PDC lines were cultured according to standard operating procedures established by the NCI PDMR (https://pdmr.cancer.gov). Table 3 of the manuscript, lists the cell lines along with the number of the three cell types plated to form the mct-spheroids and media for tumor cell growth. After thawing, all PDC lines, except 997537-175-T-J1-PDC and 415267-285-R-J2-PDC, were cultured in Matrigel-coated flasks prepared with a working solution of 1X Ham's F-12 nutrient mix, without supplementation (Thermo Fisher Scientific, cat. 11765054), 100 U/mL penicillin-streptomycin (Thermo Fisher Scientific, cat. 15140122), and 2.5% Matrigel (Corning Inc., Corning, NY, cat. 354248) for the first three passages. The two PDC lines 997537-175-T-J1-PDC and 415267-285-R-J2-PDC were cultured on uncoated flasks. The 857933-349-R-J2-PDC line was cultured in 6C/Colon 1B media containing advanced DMEM/F-12 (Thermo Fisher Scientific, cat. 12634028), 10 mM HEPES (Thermo Fisher Scientific, cat. 15630080), 1X GlutaMAX supplement (Thermo Fisher Scientific, cat. 35050061), 0.1 mg/mL primocin (InvivoGen, San Diego, CA, cat. ant-pm-2), 10% defined fetal bovine serum, heat inactivated (HyClone Laboratories Inc., Logan, UT, cat. SH30070.03HI), 50% L-WRN conditioned media (ATCC, cat. CRL-3276), 1.25 mM N-Acetyl-L-cysteine (Sigma-Aldrich, cat. A9165), 10 mM nicotinamide (Sigma-Aldrich, cat. N0636), 1X B-27 supplement (Thermo Fisher Scientific, cat. 17504044), 1X N-2 supplement (Thermo Fisher Scientific, cat. […]

[1] = second compound 0.0316 µM, first compound 0.0316 µM
[2] = second compound 0.0316 µM, first compound 0.1 µM
[3] = second compound 0.0316 µM, first compound 0.316 µM
[4] = second compound 0.0316 µM, first compound 1 µM
[5] = second compound 0.0316 µM, first compound 3.16 µM
[6] = second compound 0.0316 µM, first compound 10 µM
[7] = second compound 0.1 µM, first compound 0.0316 µM
[8] = second compound 0.1 µM, first compound 0.1 µM
[9] = second compound 0.1 µM, first compound 0.316 µM
[10] = second compound 0.1 µM, first compound 1 µM
[11] = second compound 0.1 µM, first compound 3.16 µM
[12] = second compound 0.1 µM, first compound 10 µM
[13] = second compound 0.316 µM, first compound 0.0316 µM
[14] = second compound 0.316 µM, first compound 0.1 µM
[15] = second compound 0.316 µM, first compound 0.316 µM
[16] = second compound 0.316 µM, first compound 1 µM
[17] = second compound 0.316 µM, first compound 3.16 µM
[18] = second compound 0.316 µM, first compound 10 µM
[19] = second compound 1 µM, first compound 0.0316 µM
[20] = second compound 1 µM, first compound 0.1 µM
[21] = second compound 1 µM, first compound 0.316 µM
[22] = second compound 1 µM, first compound 1 µM
[23] = second compound 1 µM, first compound 3.16 µM
[24] = second compound 1 µM, first compound 10 µM
[25] = second compound 3.16 µM, first compound 0.0316 µM
[26] = second compound 3.16 µM, first compound 0.1 µM
[27] = second compound 3.16 µM, first compound 0.316 µM
[28] = second compound 3.16 µM, first compound 1 µM
[29] = second compound 3.16 µM, first compound 3.16 µM
[30] = second compound 3.16 µM, first compound 10 µM
[31] = second compound 10 µM, first compound 0.0316 µM
[32] = second compound 10 µM, first compound 0.1 µM
[33] = second compound 10 µM, first compound 0.316 µM
[34] = second compound 10 µM, first compound 1 µM
[35] = second compound 10 µM, first compound 3.16 µM
[36] = second compound 10 µM, first compound 10 µM
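Also: spheroids exposed to compounds for seven days before readout.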

C=CC(=O)N1CCN(c2nc(=O)n(-c3c(C)ccnc3C(C)C)c3nc(-c4c(O)cccc4F)c(F)cc23)C(C)C1 (stereo unspecified) + Nc1ccc(C#CCN(C(=O)Cc2ncc(C(F)(F)F)cc2C(F)(F)F)c2ccc(F)cc2)nn1
< 5.00: pIC50 (second compound 0.0316 µM) | pIC50 (second compound 0.1 µM) | pIC50 (second compound 0.316 µM) | pIC50 (second compound 1 µM) | pIC50 (second compound 3.16 µM) | pIC50 (second compound 10 µM)
inactive: viability, T/C [1] 101% | viability, T/C [2] 116% | viability, T/C [3] 120% | viability, T/C [4] 105% | viability, T/C [5] 144% | viability, T/C [6] 214% | viability, T/C [7] 99% | viability, T/C [8] 137% | viability, T/C [9] 107% | viability, T/C [10] 121% | viability, T/C [11] 159% | viability, T/C [12] 235% | viability, T/C [13] 126% | viability, T/C [14] 129% | viability, T/C [15] 121% | viability, T/C [16] 122% | viability, T/C [17] 146% | viability, T/C [18] 176% | viability, T/C [19] 99.4% | viability, T/C [20] 113% | viability, T/C [21] 92.2% | viability, T/C [22] 158% | viability, T/C [23] 120% | viability, T/C [24] 173% | viability, T/C [25] 103% | viability, T/C [26] 121% | viability, T/C [27] 97.2% | viability, T/C [28] 129% | viability, T/C [29] 129% | viability, T/C [30] 175% | viability, T/C [31] 109% | viability, T/C [32] 108% | viability, T/C [33] 99.1% | viability, T/C [34] 117% | viability, T/C [35] 113% | viability, T/C [36] 124%

CC(=O)O[C@H]1C(=O)[C@@]2(C)[C@H]([C@H](OC(=O)c3ccccc3)[C@]3(O)C[C@H](OC(=O)[C@H](O)[C@@H](NC(=O)c4ccccc4)c4ccccc4)C(C)=C1C3(C)C)[C@]1(OC(C)=O)CO[C@@H]1C[C@@H]2O + Nc1ccc(C#CCN(C(=O)Cc2ncc(C(F)(F)F)cc2C(F)(F)F)c2ccc(F)cc2)nn1
> 8.02: pIC50 (second compound 0.0316 µM) | pIC50 (second compound 0.1 µM) | pIC50 (second compound 0.316 µM) | pIC50 (second compound 1 µM) | pIC50 (second compound 3.16 µM) | pIC50 (second compound 10 µM)
active: viability, T/C (second compound 0.0316 µM, first compound 0.00949 µM) 9.1% | viability, T/C (second compound 0.0316 µM, first compound 0.03 µM) 8.18% | viability, T/C (second compound 0.0316 µM, first compound 0.0949 µM) 10.3% | viability, T/C (second compound 0.0316 µM, first compound 0.3 µM) 9.92% | viability, T/C (second compound 0.0316 µM, first compound 0.949 µM) 7.22% | viability, T/C (second compound 0.0316 µM, first compound 3 µM) 9.23% | viability, T/C (second compound 0.1 µM, first compound 0.03 µM) 8.86% | viability, T/C (second compound 0.1 µM, first compound 0.0949 µM) 8.29% | viability, T/C (second compound 0.1 µM, first compound 0.3 µM) 9.07% | viability, T/C (second compound 0.1 µM, first compound 0.949 µM) 6.61% | viability, T/C (second compound 0.1 µM, first compound 3 µM) 8.93% | viability, T/C (second compound 0.316 µM, first compound 0.03 µM) 10% | viability, T/C (second compound 0.316 µM, first compound 0.0949 µM) 7.73% | viability, T/C (second compound 0.316 µM, first compound 0.3 µM) 7.49% | viability, T/C (second compound 0.316 µM, first compound 0.949 µM) 7.31% | viability, T/C (second compound 0.316 µM, first compound 3 µM) 7.76% | viability, T/C (second compound 1 µM, first compound 0.00949 µM) 9.77% | viability, T/C (second compound 1 µM, first compound 0.03 µM) 10.3% | viability, T/C (second compound 1 µM, first compound 0.0949 µM) 7.55% | viability, T/C (second compound 1 µM, first compound 0.3 µM) 9.06% | viability, T/C (second compound 1 µM, first compound 0.949 µM) 7.76% | viability, T/C (second compound 1 µM, first compound 3 µM) 9.17% | viability, T/C (second compound 10 µM, first compound 0.0949 µM) 11.7% | viability, T/C (second compound 10 µM, first compound 0.3 µM) 9.8% | viability, T/C (second compound 10 µM, first compound 0.949 µM) 7.89% | viability, T/C (second compound 10 µM, first compound 3 µM) 9.4%
inactive: viability, T/C (second compound 0.1 µM, first compound 0.00949 µM) 12.1% | viability, T/C (second compound 0.316 µM, first compound 0.00949 µM) 10.2% | viability, T/C (second compound 3.16 µM, first compound 0.00949 µM) 14.2% | viability, T/C (second compound 3.16 µM, first compound 0.03 µM) 8.33% | viability, T/C (second compound 3.16 µM, first compound 0.0949 µM) 9.73% | viability, T/C (second compound 3.16 µM, first compound 0.3 µM) 9.4% | viability, T/C (second compound 3.16 µM, first compound 0.949 µM) 12.7% | viability, T/C (second compound 3.16 µM, first compound 3 µM) 10.1% | viability, T/C (second compound 10 µM, first compound 0.00949 µM) 12.2% | viability, T/C (second compound 10 µM, first compound 0.03 µM) 10.5%

CC1COCCN1c1cc(-c2ccnn2C)c2ccnc(-c3ccn[nH]3)c2n1 (stereo unspecified) + Nc1ccc(C#CCN(C(=O)Cc2ncc(C(F)(F)F)cc2C(F)(F)F)c2ccc(F)cc2)nn1
6.60: pIC50 (second compound 0.316 µM)
6.69: pIC50 (second compound 1 µM) | pIC50 (second compound 10 µM)
6.63: pIC50 (second compound 3.16 µM)
6.59: pIC50 (second compound 0.0316 µM)
inactive: viability, T/C [1] 124% | viability, T/C [2] 124% | viability, T/C [3] 33.2% | viability, T/C [4] 16% | viability, T/C [5] 13.6% | viability, T/C [6] 12.8% | viability, T/C [7] 118% | viability, T/C [8] 159% | viability, T/C [9] 37.7% | viability, T/C [10] 17.4% | viability, T/C [11] 11.8% | viability, T/C [12] 11.9% | viability, T/C [13] 128% | viability, T/C [14] 140% | viability, T/C [15] 30% | viability, T/C [16] 13.2% | viability, T/C [17] 11.3% | viability, T/C [18] 10.5% | viability, T/C [19] 119% | viability, T/C [20] 92.5% | viability, T/C [21] 23.3% | viability, T/C [22] 15.3% | viability, T/C [23] 12.6% | viability, T/C [24] 8.88% | viability, T/C [25] 102% | viability, T/C [26] 128% | viability, T/C [27] 27.1% | viability, T/C [28] 15.1% | viability, T/C [29] 10.3% | viability, T/C [30] 8.61% | viability, T/C [31] 119% | viability, T/C [32] 88.8% | viability, T/C [33] 25.2% | viability, T/C [34] 12.9% | viability, T/C [35] 11.1% | viability, T/C [36] 10.7%
6.56: pIC50 (second compound 0.1 µM)
